In one assay the target is JAK1 (Homo sapiens (Human), UniProt P23458). As to the kind of experiment: JAK1 kinase inhibition. It counts as biochemical. The conditions noted are these: for inhibition at 0.1 µM: read-out: JAK1 % inhibition at 100 nM; for inhibition at 1 µM: read-out: JAK1 % inhibition at 1 μM.
In another assay the target is JAK2 (Homo sapiens (Human), UniProt O60674). In words: TR-FRET JAK2 kinase assay. It counts as biochemical. The note with it: ATP 10 μM; for inhibition at 0.1 µM: read-out: JAK2 % inhibition at 100 nM, 100 nM; for inhibition at 1 µM: read-out: JAK2 % inhibition at 1 μM. Here is the method:
(§1) Compounds were screened in the TR-FRET assay for JAK2 and c-Src kinase inhibition. Ultra light poly GT (Perkin Elmer) was used as the substrate for JAK2 and c-Src with the ATP concentration of 10 μM and 50 μM, respectively. […] The dose-response curve fitting was done using GraphPad Prism software.

Another assay has as its target c-Src (Homo sapiens (Human), UniProt P12931). In words: TR-FRET c-Src kinase assay. The conditions noted are these: ATP 50 μM; for inhibition at 0.1 µM: read-out: c-SRC % inhibition at 100 nM, 100 nM; for inhibition at 1 µM: read-out: c-SRC % inhibition at 1 μM. In kind it is biochemical. Here is the method: as §1
A further assay concerns Mda-Mb-231 cells. In words: Cell viability assay (XTT assay), Mda-Mb-231. It counts as cell-based. The note with it: Homo sapiens, 72 hrs. Here is the method: Mda-Mb-231 or A549 cells were seeded onto a 96-well micro plate. Next day compounds were added to cells and incubated for 72 hrs. Compound treatment was done in triplicates. After 72 hrs cell culture media was aspirated from the wells and XTT working solution was added and plates were incubated for 2-5 hrs. The absorbance of the samples was measured with a spectrophotometer at a wavelength of 465 nm. EC50 values were calculated using Graphpad Prism. Tumor cell lines used in the examples of the present invention were procured from ATCC. Description of the cell lines is included in the following table: […]

The test system of a further assay is A431 cancer cell line. As to the kind of experiment: Inhibition of cell growth in A431. It counts as cell-based. The conditions noted are these: Homo sapiens, A-431.
In the next assay the test system is pStat3. As to the kind of experiment: In-Cell-Western blot assay for pStat3 (ICW) in A431 cells. In kind it is cell-based. The note with it: Homo sapiens, A-431, 2 hrs, read-out: pSTAT3 inhibition. Here is the method: A431 cells were seeded onto a 96-well micro plate. After overnight serum starvation cells were incubated with compounds for 2 hrs. Cells were fixed with 4% paraformaldehyde in PBS and then permeabilized with 0.1% Triton X-100 in PBS (PBST). Cells were blocked with 5% BSA in PBST for 2 hrs, followed by overnight incubation with phospho Stat3 antibody. Cells were washed and incubated with europium-labeled anti-rabbit secondary antibody for 2 hrs. After washing enhancement solution was added to the wells. The micro-plate was read on the Victor instrument at the Europium setting. The Hoechst readings were used to normalize for cell number. IC50 values were calculated with the normalized europium values using Graphpad Prism.

SMILES strings stand for the structures. pEC50, pIC50: −log10 of the molar value.

Chain of JAK2 (O60674 whole entry): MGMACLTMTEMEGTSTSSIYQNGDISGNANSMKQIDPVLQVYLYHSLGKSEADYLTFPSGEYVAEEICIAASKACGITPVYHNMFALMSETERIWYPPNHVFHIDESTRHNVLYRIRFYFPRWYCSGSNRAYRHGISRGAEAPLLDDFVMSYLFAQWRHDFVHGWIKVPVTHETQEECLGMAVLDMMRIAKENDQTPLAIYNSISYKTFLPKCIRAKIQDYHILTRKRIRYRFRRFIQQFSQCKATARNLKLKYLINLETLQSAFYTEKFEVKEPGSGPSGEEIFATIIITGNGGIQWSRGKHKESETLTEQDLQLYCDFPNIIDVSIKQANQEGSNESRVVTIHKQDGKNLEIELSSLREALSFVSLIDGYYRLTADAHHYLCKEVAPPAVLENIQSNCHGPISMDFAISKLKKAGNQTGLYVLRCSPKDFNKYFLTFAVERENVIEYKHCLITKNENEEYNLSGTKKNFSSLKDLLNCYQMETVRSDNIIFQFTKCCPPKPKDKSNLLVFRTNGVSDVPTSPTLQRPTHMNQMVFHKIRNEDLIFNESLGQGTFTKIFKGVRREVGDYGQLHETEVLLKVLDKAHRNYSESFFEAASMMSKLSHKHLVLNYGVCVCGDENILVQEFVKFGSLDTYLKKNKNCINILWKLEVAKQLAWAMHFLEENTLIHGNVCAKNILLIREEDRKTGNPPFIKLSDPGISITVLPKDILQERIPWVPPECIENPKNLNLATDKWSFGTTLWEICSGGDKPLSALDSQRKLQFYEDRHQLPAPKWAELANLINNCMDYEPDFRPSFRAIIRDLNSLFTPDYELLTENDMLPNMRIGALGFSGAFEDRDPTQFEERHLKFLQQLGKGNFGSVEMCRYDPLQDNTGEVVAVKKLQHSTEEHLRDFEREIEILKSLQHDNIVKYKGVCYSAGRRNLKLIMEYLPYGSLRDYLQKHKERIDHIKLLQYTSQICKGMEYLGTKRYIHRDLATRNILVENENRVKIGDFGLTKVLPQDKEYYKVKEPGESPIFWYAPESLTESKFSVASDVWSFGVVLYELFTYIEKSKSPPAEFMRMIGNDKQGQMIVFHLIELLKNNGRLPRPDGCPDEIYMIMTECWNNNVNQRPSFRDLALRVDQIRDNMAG
Chain of JAK1 (P23458 whole entry): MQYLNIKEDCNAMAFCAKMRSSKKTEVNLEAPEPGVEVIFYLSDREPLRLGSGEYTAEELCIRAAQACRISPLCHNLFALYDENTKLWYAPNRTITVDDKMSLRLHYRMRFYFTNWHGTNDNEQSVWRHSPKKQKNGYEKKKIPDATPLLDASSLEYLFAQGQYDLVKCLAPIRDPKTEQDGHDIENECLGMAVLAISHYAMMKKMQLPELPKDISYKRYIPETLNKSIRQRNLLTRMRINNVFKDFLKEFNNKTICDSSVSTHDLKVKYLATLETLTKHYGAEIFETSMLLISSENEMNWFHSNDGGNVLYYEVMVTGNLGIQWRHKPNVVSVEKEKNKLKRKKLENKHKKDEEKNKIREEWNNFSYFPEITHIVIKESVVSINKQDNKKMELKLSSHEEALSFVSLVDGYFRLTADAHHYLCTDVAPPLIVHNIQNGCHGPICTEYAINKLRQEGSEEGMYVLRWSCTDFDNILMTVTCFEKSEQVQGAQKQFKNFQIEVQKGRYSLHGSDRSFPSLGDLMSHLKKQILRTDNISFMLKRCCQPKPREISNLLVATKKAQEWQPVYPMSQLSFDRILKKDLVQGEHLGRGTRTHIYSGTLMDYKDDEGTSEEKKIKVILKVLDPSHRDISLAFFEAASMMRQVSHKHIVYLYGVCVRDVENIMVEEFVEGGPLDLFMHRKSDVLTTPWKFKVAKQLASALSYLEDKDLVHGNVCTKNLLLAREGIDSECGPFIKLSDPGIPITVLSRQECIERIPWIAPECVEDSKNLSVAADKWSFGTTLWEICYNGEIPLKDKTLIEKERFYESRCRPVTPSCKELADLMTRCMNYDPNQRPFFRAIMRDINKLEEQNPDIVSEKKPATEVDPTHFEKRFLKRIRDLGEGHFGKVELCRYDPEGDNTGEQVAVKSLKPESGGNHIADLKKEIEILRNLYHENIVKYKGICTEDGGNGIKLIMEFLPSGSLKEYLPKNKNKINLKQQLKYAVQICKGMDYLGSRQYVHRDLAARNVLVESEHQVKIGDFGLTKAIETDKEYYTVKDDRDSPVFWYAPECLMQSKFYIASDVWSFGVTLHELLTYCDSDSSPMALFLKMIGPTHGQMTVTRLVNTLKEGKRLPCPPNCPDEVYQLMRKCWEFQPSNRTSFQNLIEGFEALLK
Chain of c-Src (P12931 whole entry, looked up): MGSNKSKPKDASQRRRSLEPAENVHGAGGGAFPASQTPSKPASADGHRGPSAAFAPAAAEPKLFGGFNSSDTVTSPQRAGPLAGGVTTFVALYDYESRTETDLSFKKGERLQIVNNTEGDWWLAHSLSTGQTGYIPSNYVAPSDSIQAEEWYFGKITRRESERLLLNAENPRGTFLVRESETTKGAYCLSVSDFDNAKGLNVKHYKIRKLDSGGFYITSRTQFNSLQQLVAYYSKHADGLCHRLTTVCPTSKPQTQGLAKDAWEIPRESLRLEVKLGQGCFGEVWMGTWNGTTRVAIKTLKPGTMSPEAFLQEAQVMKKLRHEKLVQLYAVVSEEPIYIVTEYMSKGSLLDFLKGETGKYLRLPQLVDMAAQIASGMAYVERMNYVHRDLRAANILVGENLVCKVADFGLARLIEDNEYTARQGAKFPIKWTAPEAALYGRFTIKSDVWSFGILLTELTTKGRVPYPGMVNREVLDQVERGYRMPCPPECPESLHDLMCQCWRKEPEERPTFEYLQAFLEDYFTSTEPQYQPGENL

Consider `Cc1ccc(NC(=O)c2cccc(C(F)(F)F)c2)cc1N1CCc2nc(Nc3ccncc3)ncc2C1=O` [Compound 26, N-{4-Methyl-3-[5-oxo-2-(pyridin-4-ylamino)-7,8-dihydro-5H-pyrido[4,3-d]pyrimidin-6-yl]-phenyl}-3-trifluoromethyl-benzamide], for which, on JAK1, the inhibition at 0.1 µM is 57% and the inhibition at 1 µM was 79%.

For the molecule `Cc1ccc(NC(=O)c2cccc(C(F)(F)F)c2)cc1N1CCc2nc(Nc3cccnc3)ncc2C1` [Compound 23, N-{4-Method-3-[2-(pyridin-3-ylamino)-7,8-dihydro-5H-pyrido[4,3-d]pyrimidin-6-yl]-phenyl}-3-trifluoromethyl-benzamide], on JAK1, the inhibition at 0.1 µM came out at 84% and the inhibition at 1 µM turned out to be 88%.

Consider `Cc1ccc(C(=O)Nc2cccc(C(F)(F)F)c2)cc1N1CCc2nc(Nc3ccc(Cl)cc3)ncc2C1` [Compound 28], for which the “JAK1 % inhibition at 100 nM” value on JAK1 (100 nM) stood at 66%. In addition, the “JAK1 % inhibition at 1 μM” value on JAK1 (1 μM) is reported as 79%.

For the molecule `Cc1ccc(NC(=O)c2cccc(C(F)(F)F)c2)cc1N1CCc2nc(Nc3cncnc3)ncc2C1` [Compound 94, N-{4-Methyl-3-[2-(pyrimidin-5-ylamino)-7,8-dihydro-5H-pyrido[4,3-d]pyrimidin-6-yl]-phenyl}-3-trifluoromethyl-benzamide], the pIC50 against JAK2 was 7.72; against c-Src, 8.70; with pStat3 it was 6.80. For the same molecule, the values for the pEC50 in the assay with Mda-Mb-231 cells and with A431 cancer cell line were 7.30 and 6.74, respectively.

With `Cc1ccc(NC(=O)N2CCCCC2)cc1N1CCc2nc(Nc3ccc(OCCN4CCCC4)cc3)ncc2C1` [Compound 107, Piperidine-1-carboxylic acid (4-methyl-3-{2-[4-(2-pyrrolidin-1-yl-ethoxy)-phenylamino]-7,8-dihydro-5H-pyrido[4,3-d]pyrimidin-6-yl}-phenyl)-amide], the pIC50 is 7.40 against JAK2, 9.00 at c-Src and 6.92 with pStat3. The inhibition at 0.1 µM on JAK2 was 72%; at c-Src, 93%. Moreover, the inhibition at 1 µM at JAK2 turned out to be 94%; on c-Src, 98%. For the same molecule, the pEC50 in the assay on Mda-Mb-231 cells is 6.21; in the assay with A431 cancer cell line it was 6.92.

Consider `Cc1ccc(NC(=O)c2ccc(C(F)(F)F)s2)cc1N1CCc2nc(Nc3ccc(OCCN4CCCC4)cc3)ncc2C1` [Compound 106, 5-Trifluoromethyl-thiophene-2-carboxylic acid (4-methyl-3-{2-[4-(2-pyrrolidin-1-yl-ethoxy)-phenylamino]-7,8-dihydro-5H-pyrido[4,3-d]pyrimidin-6-yl}-phenyl)-amide], for which the pIC50 on JAK2 is 7.74; at c-Src, 8.70; in the assay on pStat3, 6.66. For the same molecule, the inhibition at 0.1 µM amounted to 85% at JAK2 and 99% at c-Src. For the same molecule, the inhibition at 1 µM on JAK2 is 98%; at c-Src, 100%. Also, the pEC50 in the assay with Mda-Mb-231 cells was 6.51; in the assay on A431 cancer cell line it was 6.66.

`Cc1ccc(NC(=O)c2cccc(C(F)(F)F)c2)cc1N1CCc2nc(Nc3ccc(CC(=O)N4CCN(C)CC4)cc3)ncc2C1=O` [Compound 76, N-[4-Methyl-3-(2-{4-[2-(4-methyl-piperazin-1-yl)-2-oxo-ethyl]-phenylamino}-5-oxo-7,8-dihydro-5H-pyrido[4,3-d]pyrimidin-6-yl)-phenyl]-3-trifluoromethylbenza-mide]: the pIC50 is 7.21 against JAK2, 7.52 at c-Src and 6.89 in the assay on pStat3. Besides, the pEC50 was 5.67 with Mda-Mb-231 cells and 6.87 with A431 cancer cell line.

As to `Cc1ccc(NC(=O)c2cccc(C(F)(F)F)c2)cc1N1CCc2nc(Nc3ccc(C(=O)NCCCN4CCCC4)cc3)ncc2C1=O` [Compound 77, N-(4-methyl-3-(5-oxo-2-(4-(3-(pyrrolidin-1-yl)propylcarbamoyl)phenylamino)-7,8-dihydropyrido[4,3-d]pyrimidin-6(5H)-yl)phenyl)-3-(trifluoromethyl) benzamide], on JAK2, the inhibition at 0.1 µM is 80%. Further, the inhibition at 1 µM at JAK2 is 96%. For the same molecule, the pIC50 against c-Src was 7.77; with pStat3, 6.29. Also, the pEC50 in the assay with Mda-Mb-231 cells is 5.31; with A431 cancer cell line, 6.29.

For `Cc1ccc(NC(=O)c2cccc(C(F)(F)F)c2)cc1N1CCc2nc(Nc3ccncc3)ncc2C1` [Compound 15, N-{4-Methyl-3-[2-(pyridin-4-ylamino)-7,8-dihydro-5H-pyrido[4,3-d]pyrimidin-6-yl]-phenyl}-3-trifluoromethyl-benzamide], at JAK1, the inhibition at 0.1 µM came out at 49% and the inhibition at 1 µM turned out to be 73%.

For `Cc1ccc(NC(=O)c2cccc(C(F)(F)F)c2)cc1N1CCc2nc(Nc3ccc(C(=O)N4CCN(C)CC4)cc3)ncc2C1=O` [Compound 75, N-(4-Methyl-3-{2-[4-(4-methyl-piperazine-1-carbonyl)-phenylamino]-5-oxo-7,8-dihydro-5H-pyrido[4,3-d]pyrimidin-6-yl}-phenyl)-3-trifluoromethylbenza-mide], on JAK2, the inhibition at 0.1 µM turned out to be 83% and the inhibition at 1 µM came out at 97%. The molecule also had a pIC50 at c-Src of 7.72. Also, the pEC50 with Mda-Mb-231 cells is 5.33. This molecule had a pEC50 in the assay with A431 cancer cell line of 5.97.

On to `Cc1ccc(NC(=O)c2cccc(C(F)(F)F)c2)cc1N1CCc2nc(Nc3ccnc(Cl)c3)ncc2C1` [Compound 25, N-{3-[2-(2-Chloro-pyridin-4-ylamino)-7,8-dihydro-5H-pyrido[4,3-d]pyrimidin-6-yl]-4-methyl-phenyl}-3-trifluoromethyl-benzamide], for which, on JAK1, the inhibition at 0.1 µM stood at 58% and the inhibition at 1 µM amounted to 96%.

Take `Cc1ccc(NC(=O)c2cccc(C(F)(F)F)c2)cc1N1CCc2nc(Nc3ccc(C(=O)NC4CCN(C)CC4)cc3)ncc2C1` [Compound 92]: the pEC50 with Mda-Mb-231 cells was 8.30; with A431 cancer cell line it was 7.59. Besides, the pIC50 in the assay on pStat3 was 7.59.

Regarding `Cc1ccc(NC(=O)c2cccc(C(F)(F)F)c2)cc1N1CCc2nc(Nc3ccc(C(N)=O)nc3)ncc2C1` [Compound 119, 5-{6-[2-Methyl-5-(3-trifluoromethyl-benzoylamino)-phenyl]-5,6,7,8-tetrahydro-pyrido[4,3-d]pyrimidin-2-ylamino)-pyridine-2-carboxylic acid amide], the pIC50 against JAK2 is 8.10. Besides, on c-Src, the inhibition at 0.1 µM turned out to be 95% and the inhibition at 1 µM is 98%. In the assay on Mda-Mb-231 cells, the pEC50 was 6.42. For the same molecule, in the assay on pStat3, the pIC50 is 6.55.

On to `Cc1ccc(NC(=O)c2cccc(C(F)(F)F)c2)cc1N1CCc2nc(Nc3ccc4c(c3)CCC(=O)N4)ncc2C1` [Compound 18, N-{4-Methyl-3-[2-(2-oxo-1,2,3,4-tetrahydro-quinolin-6-ylamino)-7,8-dihydro-5H-pyrido[4,3-d]pyrimidin-6-yl]-phenyl}-3-trifluoromethyl-benzamide], for which, on JAK1, the inhibition at 0.1 µM was 82% and the inhibition at 1 µM stood at 89%.

Turning to `Cc1ccc(NC(=O)c2cccc(C(F)(F)F)c2)cc1N1CCc2nc(Nc3ccc(N4CCNCC4)cc3)ncc2C1=O` [Compound 178, N-{4-Methyl-3-[5-oxo-2-(4-piperazin-1-yl-phenylamino)-7,8-dihydro-5H-pyrido[4,3-d]pyrimidin-6-yl]-phenyl}-3-trifluoromethyl-benzamide], at JAK2, the pIC50 is 8.15, the inhibition at 0.1 µM was found to be 91% and the inhibition at 1 µM is 92%. For the same molecule, at c-Src, the pIC50 was 7.77, the inhibition at 0.1 µM was determined as 77% and the inhibition at 1 µM turned out to be 90%. In addition, the pEC50 in the assay with Mda-Mb-231 cells is 5.76. Moreover, in the assay on pStat3, the pIC50 is 6.82.

Turning to `Cc1ccc(NC(=O)c2cccc(C(F)(F)F)c2)cc1N1CCc2nc(Nc3ccc(OCCN4CCCC4)cc3)ncc2C1` [Compound 9, N-(4-Methyl-3-{2-[4-(2-pyrrolidin-1-yl-ethoxy)-phenylamino]-7,8-dihydro-5H-pyrido[4,3-d]pyrimidin-6-yl}-phenyl)-3-trifluoromethyl-benzamide], on JAK1, the inhibition at 0.1 µM came out at 58% and the inhibition at 1 µM came to 85%.

`Cc1ccc(NC(=O)CC(C)C(F)(F)F)cc1N1CCc2nc(Nc3ccc(N4CCN(C)CC4)cc3)ncc2C1` (stereo not shown) [Compound 123, 4,4,4-Trifluoro-3-methyl-N-(4-methyl-3-{2-[4-(4-methyl-piperazin-1-yl)-phenylamino]-7,8-dihydro-5H-pyrido[4,3-d]pyrimidin-6-yl}-phenyl)-butyramide]: the pIC50 at JAK2 is 8.05; against c-Src, 8.52; in the assay with pStat3, 6.72. Besides, the pEC50 with Mda-Mb-231 cells is 6.08.

For the origin of these results see patent publication US8962637B2, “Bicyclic compounds and their uses as dual c-SRC/JAK inhibitors” (Debiopharm S.A., priority 2010, dated 2015).
